Source: US11707519B2, “Phosphorylated heptose compounds: process for their preparation and use” (priority 2017, dated 2023)

Key:
THP-1 cells = assay: IL-8 ELISA after stimulation of human macrophage cells (THP-1); type: cell-based; settings: THP-1, 30 μM or 150 μM synthetic compound, 20 minutes with digitonin, then 6 hours; FIG. 37
Protocol: (§1) FIG. 37: Stimulation of human macrophages by compounds/products according to the invention. Human macrophage cells (THP-1) were stimulated for 20 minutes in permeabilization buffer (5 μg/mL digitonin) in the presence of water, 39.8 μM of the Nod1 agonist C12-iE-DAP (which stimulates in a TIFA-independent manner), or either 30 μM or 150 μM of synthetic compound according to the invention. Treatment was removed, cells were washed, and cells were incubated for 6 hours in complete media before the IL-8 levels in culture supernatants were measured by ELISA. The results are the mean and standard error of the mean of three technical replicates. Nod1 agonist: C12-iE-DAP (20 μg/mL, 39.8 μM); HBP: D-glycero-1-D-manno-heptose-1β,7-bi-phosphate.
as §1, with “Stimulation” for “FIG. 37: Stimulation”, “ELISA (FIG. 37).” for “ELISA.”, “Nod1 agonist: C12-iE-DAP (20 μg/mL, 39.8 μM); HBP: D-glycero-1-D-manno-heptose-1β,7-bi-phosphate.” left out

HCT 116 cells = assay: IL-8 ELISA after stimulation of human colonic epithelial cells (HCT 116, WT or TIFA KO); type: cell-based; settings: 10 μg/mL synthetic compound, 20 minutes with digitonin, then 6 hours, FIG. 36
Protocol: (§2) FIG. 36: Stimulation of human colonic epithelial cells by compounds/products according to the invention. Human colonic epithelial cells (HCT 116) that were either wild type (WT) or deficient in TIFA protein expression (knockout, KO) were stimulated for 20 minutes in permeabilization buffer (5 μg/mL digitonin) in the presence of culture supernatant from N. meningitidis mutants with (gmhB) or without (hldA) HBP or 10 μg/mL of synthetic compound according to the invention. Treatment was removed, cells were washed, and cells were incubated for 6 hours in complete media and IL-8 levels in culture supernatants were measured by ELISA. The results are mean of technical duplicates.
as §2, with “Human” for “FIG. 36: Stimulation of human colonic epithelial cells by compounds/products according to the invention. Human”, “results obtained are illustrated in FIG. 36. They” for “results”

[1] = test system: NF-κB-driven luciferase reporter in HEK 293T cells; assay: NF-κB-driven luciferase reporter assay in HEK 293T cells; type: cell-based; settings: 20 μg/mL synthetic compound, 20 minutes in permeabilization buffer (5 μg/mL digitonin), then 3.5 hours in complete medium; FIG. 35
Protocol: FIG. 35: Effects of compounds/products according to the invention on HEK 293T cells encoding an NF-κB-driven luciferase reporter gene. HEK 293T cells were transfected with a plasmid encoding an NF-κB-driven luciferase reporter. After 24 hours, cells were stimulated for 20 minutes in permeabilization buffer (5 μg/mL digitonin) in the presence of culture supernatant from N. meningitidis mutants with (gmhB) or without (hldA) HBP or 20 μg/mL of synthetic compounds according to the invention. Treatment was removed; cells were washed and incubated for 3.5 hours in complete medium. A luciferase assay was then performed. The results are mean of technical triplicates.
HEK 293T cells were transfected with a plasmid encoding an NF-κB-driven luciferase reporter. After 24 hours, cells were stimulated for 20 minutes in permeabilization buffer (5 μg/mL digitonin) in the presence of culture supernatant from N. meningitidis mutants with (gmhB) or without (hldA) HBP or 20 μg/mL of synthetic compound according to the invention. Treatment was removed; cells were washed and incubated for 3.5 hours in complete medium. A luciferase assay was then performed. The results obtained are illustrated in FIG. 35. They are mean of technical triplicates.

N. meningitidis = assay: Challenge of immunized mice with N. meningitidis strain expressing matching TbpB (sepsis model); type: in vivo, C57BL/6NCrl mice; settings: TbpB with adjuvant as opposed to TbpB alone
Protocol: (§3) FIG. 38: 6-week-old male C57BL/6NCrl mice were immunized with TbpB originating from group B N. meningitidis, purified from recombinant E. coli. All groups were immunized with 25 μg of TbpB with or without adjuvant, in a total volume of 30 μL intramuscularly: TbpB alone, TbpB+alum, and TbpB+HBP (200 μg). Three doses were given: D0, D21, and D28. Serum was collected at D0 prior to immunization, D14, D28, and D35 and then examined by ELISA for IgG titers to TbpB (FIG. 38A). Mice were challenged on D36 with 5×10^7 of N. meningitidis strain expressing the homologous TbpB. Mice were injected with human transferrin (200 μL of 8 mg/mL) as this is critical for the development of sepsis in this model. Mice were monitored at the 1 h, 12 h, 18 h, 24 h, and 36 h time points. At 1 h, blood was collected to enumerate CFUs (FIG. 38B). Clinical scores were collected at 12 h post challenge (FIG. 38C).
(§4) HBP can act as an adjuvant. 6-week-old male C57BL/6NCrl mice were immunized with TbpB originating from group B N. meningitidis, purified from recombinant E. coli. All groups were immunized with 25 μg of TbpB with or without adjuvant, in a total volume of 30 μL intramuscularly TbpB, TbpB+alum, and TbpB+HBP (equimolar to 200 μg). Three doses were given: D0, D21, D28. […] Mice were monitored at the 1 h, 12 h, 18 h, 24 h, and 36 h time points. […]

[2] = test system: TbpB originating from group B N. meningitidis; assay: Adjuvant test: mice immunized with TbpB, serum IgG titers to TbpB by ELISA; type: in vivo, C57BL/6NCrl mice; settings: 25 μg TbpB with adjuvant intramuscularly, doses D0, D21, D28; serum D14, D28, D35; compared with TbpB alone and TbpB+alum; FIG. 38A
Protocol: as §3, §4

## O=P(O)(O)OC[C@@H](O)[C@H]1O[C@@H](OP(=O)(O)O)[C@@H](O)[C@@H](O)[C@@H]1O [HBP, D-glycero-D-manno-heptopyranose 1β,7-bisphosphate]
THP-1 cells
  cytokine expression (IL-8 levels in culture supernatants): can drive cytokine expression in vitro
HCT 116 cells
  cytokine expression (IL-8 levels in culture supernatants): can drive cytokine expression in vitro
[1]
  NF-κB stimulation (luciferase assay): can immunomodulate via NF-κB stimulation in vitro
N. meningitidis; challenge D36, 12 h post challenge, FIG. 38C
  clinical scores: lower
N. meningitidis; challenge D36 with 5×10^7 N. meningitidis, blood at 1 h, FIG. 38B
  bacterial burden (CFU in blood): reduced
[2]
  IgG titers to TbpB: significantly higher than administration of TbpB alone and greater than observed with alum as the adjuvant
